Results: patent US6420371B1, “Quinazolinone-containing pharmaceutical compositions for prevention of neovascularization and for treating malignancies” (Madasit Medical Research Services & Development Co., Ltd., priority 1997, dated 2002)
In brackets after ≈: the same amount, converted by molar mass. Several values for one entry are separate records, joined by “and”; a condition that tells them apart may be missing. Identical values can stand only once.

Key:
3T3 fibroblast cells = details: in vitro; cited from earlier work
EHS sarcoma = experiment: Inhibition of in vivo growth of EHS tumor in C57BL/6 mice
Procedure: Animals bearing Engelbreth-Holm-Swarm (EHS) tumors were sacrificed and the tumor tissue was excised and minced under aseptic conditions. The EHS tumor is characterized by a large amount of basement membrane components. A suspension of the tumor tissue in 0.2 ml of PBS was injected subcutaneously in the dorsal posterior region of C57BL/6 male mice. The mice were divided into two groups of 10 mice each. The animals of the experimental group were fed with a diet containing 5 mg/kg Halofuginone for 3 days prior to tumor injection and during 3 weeks after. The tumor size was estimated by measurement of tumor length in two directions, using the formula V=LW^2/2. On the final day of the experiment, i.e., 20 days after tumor injector, the mice were weighed the tumors were exceed and a sample of the tumor tissue was fixed and processed for histological examination.

[1] = system: bovine aortic endothelial cells; experiment: 3H-thymidine incorporation into vascular endothelial cells; assay type: cell-based; details: 48 hours
Procedure: Cultures of vascular endothelial cells were established from bovine aorta as previously described [D. Gospodarowicz, et al., Proc. Natl. Acad. Sci. U.S.A., Vol. 73, p. 4120 (1979)]. Bovine aortic endothelial cells were plated (4×10^4 cells/16 mm well) in DMEM (1 g glucose/liter) supplemental with 10% calf serum, 50 U/ml penicillin, and 50 μ/ml streptomycin at 37° C. in 10% CO2 humidified incubators. Four days after plating, the subconfluent cells were exposed to increasing concentrations of Halofuginone (100-500 ng/ml), in the absence of presence of 1 ng/ml bFGF. ^3H-thymidine (1 μCi/well) was then added for an additional 48 hours, and DNA synthesis was assayed by measuring the radioactivity incorporated into trichloroacetic acid insoluble material [M. Benezra, et al., Cancer Res., Vol 52, pp. 5656-5662 (1992); I. Vlodavsky, et al., Proc. Natl. Acad. Sci. U.S.A. Vol. 84, pp. 2292-2296 (1987)].

[2] = system: bovine corneal endothelial cells; experiment: cells; assay type: cell-based
Procedure: Cultures of bovine corneal endothelial cells were established from steer eyes and maintained as previously described [D. Gospodarowicz, et al., Exp. Eye Res., No. 25, pp. 75-89 (1997)]. Cells were cultured at 37° C. in 10% CO2 humidified incubators and the experiments were performed with early (3-8) cell passsages.
For preparation of the sulfate-labelled ECM (extra-cellular matrix), corneal endothelial cells were seeded into 4-well plates at a confluent density forming, within 4-6 h, a contact inhibited cell monolayer composed of closely apposed, and growth arrested cells. Under these conditions, the cells remained viable and retained their normal monolayer configuration and morphological appearance up to a concentration of 2 μg/ml halofuginone. Na2[^35S]O4 (540-590 mCi/mmol) was added (40 μCi/ml) one and five days after seeding and the cultures were incubated without medium change. At various intervals after seeding, the subendothelial ECM was exposed by dissolving (5 min., room temperature) the cell layer with PBS containing 0.5% Triton X-100 and 20 mM NH4OH, followed by four washes in PBS [I Viodavsky, et al., Cancer Res., Vol. 43, pp. 2704-2711 (1983), I. Vlodavsky, et al., Proc. Natl. Acad. Sci. USA, Vol. 84 pp. 2292-2296 (1987)]. To determine the total amount of sulfate labeled material, the BCM was digested with trypsin (25 μg/ml, 24 h, 37° C.) and the solubilized material counted in a β-counter.

[3] = system: bovine aortic endothelial cells; experiment: Organization of endothelial cells into capillary-like networks in type I collagen gel; assay type: cell-based; details: 0.1 μg/ml Halofuginone; bFGF 1 ng/ml and heparin 1 μg/ml
Procedure: Type I collagen was prepared from the tail tendons of adult Sprague Dawley rats. Briefly, the collagen fibers were solubilized by a slow stirring for 48 h at 4° C. in a sterile, 1/1000 (w/v) acetic acid solution (300 ml for 1 g of collagen). The resulting solution was filtered through a sterile triple gauze and centrifuged at 16,000 g for 1 h at 4° C. The supernatant was then extensively dialyzed against 1/10. DMEM and stored at 4° C. The collagen matrix gel was obtained by simultaneously raising the pH and ionic strength of the collagen solution. For this purpose, 7 vol of collagen solution were quickly mixed with 1 vol of 10X Minimum Essential Medium and 2 vol sodium bicarbonate (0.15 M) [R. F. Nicosa and A. Ottinetti, Lab. Invest, Vol. 63, pp. 115-122 (1990)]. Bovine aortic endothelial cells were seeded into 16 mm wells of a 24-well plate and allowed to grow for 24 h, to obtain a subconfluent monolayer. The culture medium was then removed and 0.4 ml of the cold collagen mixture described above were poured on top of the cell monolayer and allowed to polymerize for 10 min at 37° C. […] The reorganization of the endothelial cell monolayer was monitored and photographed with a Zeiss inverted phase contrast photomicroscope [K. Monesano, et al., J. Cell Biol., Vol. 97, pp. 1648-1652 (1983)].

tumor cells = experiment: Tunnel staining of histological tumor sections (necrosis and apoptosis); assay type: in vivo; details: tumors from halofuginone treated mice, FIG. 1F panel B
From the text: Histological sections of the tumors were subjected to tunnel staining [Gavrieli, Y. et al., J. Cell Biol., Vol. 119, pp. 493-501, 1992], in order to evaluate the extent of tumor cell necrosis and apoptosis. […] The high degree of cell apoptosis and necrosis in halofuginone treated tumors is in all likelihood due to an inhibition of angiogenesis and […] deposition, both critical factors supporting growth and survival of the tumor cells.

O=C(CC1NCCCC1O)Cn1cnc2cc(Br)c(Cl)cc2c1=O (stereo not drawn) [Halofuginone]
proliferation of 3T3 fibroblast cells (3T3 fibroblast cells): inhibit the proliferation
tumor volume (group mean) (EHS sarcoma; C57BL/6 mice fed Halofuginone 5 mg/kg diet): 1.72±1.85 cm^3
reduction of tumor size compared to control mice (EHS sarcoma; C57BL/6 mice, diet 5 mg/kg Halofuginone): about 75%
weight of mice (EHS sarcoma; Halofuginone-fed C57BL/6 mice, nearly normal weight): 19.7 ± 0.47 g
EHS Tumor Size (EHS sarcoma; individual mice, diet 5 mg/kg Halofuginone, 20 days after tumor injection): 0 cm^3 (2×) and 2.2 cm^3 and 0.04 cm^3 and 6.5 cm^3 and 3.0 cm^3 and 1.3 cm^3 (2×) and 1.2 cm^3 and 1.7 cm^3
IC50 ([1]; Bos taurus, Endothelial cell, absence of bFGF (FIG. 2A), read-out: concentration giving 50% inhibition of 3H-thymidine incorporation): 0.1 µg/mL (≈ 0.241 µM)
concentration giving 50% inhibition of 3H-thymidine incorporation ([1]; presence of 1 ng/ml bFGF (FIG. 2B)): 100 ng/mL
inhibition of sulfate incorporation into ECM ([2]; 1 μg/ml Halofuginone): almost complete inhibition
IC50 ([2]; Bos taurus, Endothelial cell, read-out: concentration giving 50% inhibition of sulfate incorporation into ECM): 0.2 µg/mL (≈ 0.482 µM)
concentration up to which cells remained viable with normal monolayer configuration and morphology ([2]; bovine): ≤ 2 μg/ml
invasion of endothelial cells into collagen gel and organization into capillary-like tubes [3]: completely inhibited
tunnel staining of tumor sections (cell apoptosis and necrosis) (tumor cells): majority of cells in tumor sections derived from halofuginone treated mice exhibited an intense staining
